Experimental data published in the supplement of paper PMC10307832.

Experiments:
Test in all cases: relative viability (nuclei count vs DMSO), 5 days (fraction); higher = more cells survive
NCI-H2087 = tested on: NCI-H2087
In short: (§1)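 Relative viability is defined as nuclei in treated wells over nuclei in vehicle wells. Duplicate plates were run and medians reported. Lung cancer cell lines in 1536-well plates were dosed by pin tool one day after seeding, with one drug or with a fixed anchor-drug dose plus five library-drug doses (not always all listed) in √10 steps, and nuclei were counted after 5 days.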

LOU-NH91 = tested on: LOU-NH91
In short: as §1

HCC-827 = tested on: HCC-827
In short: as §1

NCI-H661 = tested on: NCI-H661
In short: as §1

NCI-H2009 = tested on: NCI-H2009
In short: as §1

NCI-H1355 = tested on: NCI-H1355
In short: as §1

NCI-H2405 = tested on: NCI-H2405
In short: as §1

LC-2-ad = tested on: LC-2-ad
In short: as §1

NCI-H647 = tested on: NCI-H647
In short: as §1

NCI-H1437 = tested on: NCI-H1437
In short: as §1

BEN = tested on: BEN
In short: as §1

NCI-H2170 = tested on: NCI-H2170
In short: as §1

SK-MES-1 = tested on: SK-MES-1
In short: as §1

EKVX = tested on: EKVX
In short: as §1

NCI-H1395 = tested on: NCI-H1395
In short: as §1

SK-LU-1 = tested on: SK-LU-1
In short: as §1

NCI-H2228 = tested on: NCI-H2228
In short: as §1

NCI-H596 = tested on: NCI-H596
In short: as §1

HCC-366 = tested on: HCC-366
In short: as §1

NCI-H1734 = tested on: NCI-H1734
In short: as §1

HARA = tested on: HARA
In short: as §1

NCI-H1792 = tested on: NCI-H1792
In short: as §1

CC1(C)CCC(c2ccc(Cl)cc2)=C(CN2CCN(c3ccc(C(=O)NS(=O)(=O)c4ccc(N[C@H](CCN5CCOCC5)CSc5ccccc5)c(S(=O)(=O)C(F)(F)F)c4)cc3)CC2)C1 [Navitoclax] + CS(=O)(=O)N1CCN(Cc2cc3nc(-c4cccc5[nH]ncc45)nc(N4CCOCC4)c3s2)CC1 [Pictilisib] (partner 1 µM)
relative viability (NCI-H2087; first compound 0.005 µM): 0.806 | relative viability (NCI-H2087; first compound 0.01581 µM): 0.976 | relative viability (NCI-H2087; first compound 0.05 µM): 0.54 | relative viability (NCI-H2087; first compound 0.1581 µM): 1.02 | relative viability (NCI-H2087; first compound 0.5 µM): 0.887 | relative viability (LOU-NH91; first compound 0.005 µM): 0.51 | relative viability (LOU-NH91; first compound 0.01581 µM): 0.513 | relative viability (LOU-NH91; first compound 0.05 µM): 0.556 | relative viability (LOU-NH91; first compound 0.1581 µM): 0.496 | relative viability (LOU-NH91; first compound 0.5 µM): 0.393 | relative viability (HCC-827; first compound 0.005 µM): 1.12 | relative viability (HCC-827; first compound 0.01581 µM): 1 | relative viability (HCC-827; first compound 0.05 µM): 0.933 | relative viability (HCC-827; first compound 0.1581 µM): 0.78 | relative viability (HCC-827; first compound 0.5 µM): 0.975 | relative viability (NCI-H661; first compound 0.005 µM): 0.48 | relative viability (NCI-H661; first compound 0.01581 µM): 0.443 | relative viability (NCI-H661; first compound 0.05 µM): 0.379 | relative viability (NCI-H661; first compound 0.1581 µM): 0.406 | relative viability (NCI-H661; first compound 0.5 µM): 0.465 | relative viability (NCI-H2009; first compound 0.005 µM): 0.771 | relative viability (NCI-H2009; first compound 0.01581 µM): 1.09 | relative viability (NCI-H2009; first compound 0.05 µM): 0.961 | relative viability (NCI-H2009; first compound 0.1581 µM): 0.898 | relative viability (NCI-H2009; first compound 0.5 µM): 0.979 | relative viability (NCI-H1355; first compound 0.005 µM): 0.461 | relative viability (NCI-H1355; first compound 0.01581 µM): 0.42 | relative viability (NCI-H1355; first compound 0.05 µM): 0.416 | relative viability (NCI-H1355; first compound 0.1581 µM): 0.497 | relative viability (NCI-H1355; first compound 0.5 µM): 0.427 | relative viability (NCI-H2405; first compound 0.005 µM): 0.409 | relative viability (NCI-H2405; first compound 0.01581 µM): 0.754 | relative viability (NCI-H2405; first compound 0.05 µM): 0.434 | relative viability (NCI-H2405; first compound 0.1581 µM): 0.451 | relative viability (NCI-H2405; first compound 0.5 µM): 0.41 | relative viability (LC-2-ad; first compound 0.005 µM): 0.614 | relative viability (LC-2-ad; first compound 0.01581 µM): 0.654 | relative viability (LC-2-ad; first compound 0.05 µM): 0.324 | relative viability (LC-2-ad; first compound 0.1581 µM): 0.447 | relative viability (LC-2-ad; first compound 0.5 µM): 0.38 | relative viability (NCI-H647; first compound 0.005 µM): 0.539 | relative viability (NCI-H647; first compound 0.01581 µM): 0.396 | relative viability (NCI-H647; first compound 0.05 µM): 0.385 | relative viability (NCI-H647; first compound 0.1581 µM): 0.422 | relative viability (NCI-H647; first compound 0.5 µM): 0.453 | relative viability (NCI-H1437; first compound 0.005 µM): 0.409 | relative viability (NCI-H1437; first compound 0.01581 µM): 0.537 | relative viability (NCI-H1437; first compound 0.05 µM): 0.501 | relative viability (NCI-H1437; first compound 0.1581 µM): 0.445 | relative viability (NCI-H1437; first compound 0.5 µM): 0.477 | relative viability (BEN; first compound 0.005 µM): 0.548 | relative viability (BEN; first compound 0.01581 µM): 0.678 | relative viability (BEN; first compound 0.05 µM): 0.625 | relative viability (BEN; first compound 0.1581 µM): 0.602 | relative viability (BEN; first compound 0.5 µM): 0.364 | relative viability (NCI-H2170; first compound 0.005 µM): 0.306 | relative viability (NCI-H2170; first compound 0.01581 µM): 0.327 | relative viability (NCI-H2170; first compound 0.05 µM): 0.334 | relative viability (NCI-H2170; first compound 0.1581 µM): 0.243 | relative viability (NCI-H2170; first compound 0.5 µM): 0.203 | relative viability (SK-MES-1; first compound 0.005 µM): 0.458 | relative viability (SK-MES-1; first compound 0.01581 µM): 0.48 | relative viability (SK-MES-1; first compound 0.05 µM): 0.355 | relative viability (SK-MES-1; first compound 0.1581 µM): 0.321 | relative viability (SK-MES-1; first compound 0.5 µM): 0.334 | relative viability (EKVX; first compound 0.005 µM): 0.487 | relative viability (EKVX; first compound 0.01581 µM): 0.611 | relative viability (EKVX; first compound 0.05 µM): 0.427 | relative viability (EKVX; first compound 0.1581 µM): 0.41 | relative viability (EKVX; first compound 0.5 µM): 0.452 | relative viability (NCI-H1395; first compound 0.005 µM): 0.692 | relative viability (NCI-H1395; first compound 0.01581 µM): 0.645 | relative viability (NCI-H1395; first compound 0.05 µM): 0.563 | relative viability (NCI-H1395; first compound 0.1581 µM): 0.818 | relative viability (NCI-H1395; first compound 0.5 µM): 0.67 | relative viability (SK-LU-1; first compound 0.005 µM): 0.557 | relative viability (SK-LU-1; first compound 0.01581 µM): 0.725 | relative viability (SK-LU-1; first compound 0.05 µM): 0.499 | relative viability (SK-LU-1; first compound 0.1581 µM): 0.522 | relative viability (SK-LU-1; first compound 0.5 µM): 0.483 | relative viability (NCI-H2228; first compound 0.005 µM): 0.431 | relative viability (NCI-H2228; first compound 0.01581 µM): 0.526 | relative viability (NCI-H2228; first compound 0.05 µM): 0.367 | relative viability (NCI-H2228; first compound 0.1581 µM): 0.366 | relative viability (NCI-H2228; first compound 0.5 µM): 0.304 | relative viability (NCI-H596; first compound 0.005 µM): 0.405 | relative viability (NCI-H596; first compound 0.01581 µM): 0.399 | relative viability (NCI-H596; first compound 0.05 µM): 0.398 | relative viability (NCI-H596; first compound 0.1581 µM): 0.308 | relative viability (NCI-H596; first compound 0.5 µM): 0.218 | relative viability (HCC-366; first compound 0.005 µM): 0.159 | relative viability (HCC-366; first compound 0.01581 µM): 0.174 | relative viability (HCC-366; first compound 0.05 µM): 0.207 | relative viability (HCC-366; first compound 0.1581 µM): 0.107 | relative viability (HCC-366; first compound 0.5 µM): 0.15 | relative viability (NCI-H1734; first compound 0.005 µM): 0.455 | relative viability (NCI-H1734; first compound 0.01581 µM): 0.481 | relative viability (NCI-H1734; first compound 0.1581 µM): 0.49 | relative viability (NCI-H1734; first compound 0.5 µM): 0.465 | relative viability (HARA; first compound 0.005 µM): 0.389 | relative viability (HARA; first compound 0.01581 µM): 0.372 | relative viability (HARA; first compound 0.05 µM): 0.384 | relative viability (HARA; first compound 0.1581 µM): 0.425 | relative viability (HARA; first compound 0.5 µM): 0.381 | relative viability (NCI-H1792; first compound 0.005 µM): 0.307 | relative viability (NCI-H1792; first compound 0.01581 µM): 0.283 | relative viability (NCI-H1792; first compound 0.05 µM): 0.163 | relative viability (NCI-H1792; first compound 0.1581 µM): 0.285 | relative viability (NCI-H1792; first compound 0.5 µM): 0.29
